Assay results taken from US20240139167A1, “LYSOSOME-ASSOCIATED MEMBRANE PROTEIN TARGETING COMPOUNDS AND USES THEREOF” (HADASIT MEDICAL RESEARCH SERVICES AND DEVELOPMENT LTD., priority 2021, published 2024).
pKd: −log10 of the molar value.

Columns and labels:
[1] = system: HC and APBD patient skin fibroblasts; assay: Seahorse ATP Rate Assay under glycogen burden; assay type: cell-based, human
Procedure: FIGS. 4A-4D include a bar graph of PAS staining for total glycogen in skin fibroblasts from different APBD patients (4A), images of PAS staining for total glycogen in APBD87 fibroblasts glucose-starved for 48 h (left), or glucose starved and then replenished for the last 24 h to induce glycogen burden (right) (4B), image acquisition was done by Nikon Eclipse Ti2 microscope using a 40×PlanFluor objective and CY3 filter; graph of image-based multiparametric phenotyping of APBD fibroblasts under 48 h glucose-starvation, or starvation and glucose replenishment as in 4B (4C), level of significance p=0.01; and bar graph of glycolytic and mitochondrial ATP production determined by Agilent's Seahorse machine and ATP rate assay kit (4D). Healthy control (HC) and APBD patient fibroblasts were untreated or treated with 10 μM Compound 1 for 48 h (chronic), or on assay for 20 min (acute). Readings were normalized to cell number as determined by Crystal Violet staining. Shown are mean and SD values based on n=6 repeats.
The RQ shift towards carbohydrate catabolism observed in vivo prompted the inventors to investigate whether carbohydrate catabolism is also up-modulated intracellularly. To that end, and especially since glycogen levels are highly versatile among fibroblasts derived from different APBD patients (FIG. 4A), the inventors first aimed at inducing a physiological glycogen overload, or glycogen burden condition, equivalent to the one found in tissues. […] Therefore, the inventors selected this glycogen burden condition to analyze catabolism at a cell level using an ATP Rate Assay (Agilent's Seahorse ATP Rate Assay). The results

luminal portion of LAMP1 = biological target: T1, luminal portion of LAMP1 (Homo sapiens, UniProt P11279); assay: Surface plasmon resonance (SPR); assay type: binding
T1 sequence (P11279 29-382 limits assumed): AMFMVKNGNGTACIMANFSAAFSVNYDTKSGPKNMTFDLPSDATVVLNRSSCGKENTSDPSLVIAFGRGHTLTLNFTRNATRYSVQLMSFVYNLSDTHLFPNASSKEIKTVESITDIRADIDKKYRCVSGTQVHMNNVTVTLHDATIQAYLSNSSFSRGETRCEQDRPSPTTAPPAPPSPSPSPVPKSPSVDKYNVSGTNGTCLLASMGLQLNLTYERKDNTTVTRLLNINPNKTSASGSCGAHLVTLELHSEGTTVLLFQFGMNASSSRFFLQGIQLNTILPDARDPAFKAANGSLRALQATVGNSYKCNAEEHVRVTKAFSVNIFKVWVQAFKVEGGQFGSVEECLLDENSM
Source text: FIGS. 5A-5E include images of experiments showing hetero-assembly forms around Compound 1 and not around endogenous molecules as shown by the liquid crystals formed in experiments 1-3 (5A); image of STRING network of targets at the interactome of Compound 1 (5B); cellular thermal shift assay (CETSA) of different targets of the Compound 1 hetero-assembly (5C); surface plasmon resonance sensograms of binding of Compound 1 to LAMP1 (5D); sensogram experiments consisting of association and dissociation at the indicated concentration ranges and pH values were then conducted.
The inventors have investigated the mechanism of action of 144DG11. To that end, the inventors first decided to determine its molecular target. Nematic protein organization technique (NPOT, Inoviem, Ltd.) was applied to homogenates of APBD patient fibroblasts. The NPOT analysis has discovered protein hetero assemblies uniquely generated around 144DG11 only when it was added to the cell homogenates (FIG. 5A). The next step in this analysis has identified the interactome of protein targets interacting with 144DG11 in APBD patients' fibroblasts. […] Moreover, the inventors have tested by cellular thermal shift assay the specific interaction of 144DG11 with 6 of the 8 targets discovered by NPOT. […] This finding relates to a novel pathogenic hypothesis connecting cellular glycogen overload with glycogen trafficking to lysosomes via Starch Binding Domain containing Protein 1. To validate 144DG11's interaction with LAMP1, the inventors have used surface plasmon resonance (SPR) technology. […] The inventors hypothesized that this slow rate of association could be explained by inhibited diffusion of 144DG11 due to the bulky oligosaccharides at the glycosylation sites. Therefore, the inventors have repeated the SPR experiments with a chemically deglycosylated luminal LAMP1 domain. […] The inventors have further investigated 144DG11 binding to LAMP1 by structure-based computational docking. In the search for a putative binding site for Compound 1 in LAMP1, the inventors have analyzed the N- and C-terminal subdomains of its luminal domain (residues A29-R195 and S217-D378, respectively), which have a similar topology. These domains were modeled and computationally docked against decoys to Compound 1 at the intralysosomal pH 5 based on the known crystal structure of mouse LAMP1 C-terminal domain (PDB ID 5gv0). […] However, they might still affect Compound 1 diffusion.

[2] = system: PD patient-derived skin fibroblasts; assay: Autophagic flux in Pompe disease fibroblasts; assay type: cell-based, human; conditions: serum starved, 50 μM, 24 h
Procedure: FIG. 15 includes a micrograph and a vertical bar graph showing autophagic flux in PD patient-derived skin fibroblasts, serum starved and treated (or not) with 50 μM 144DG11 (indicated as comp. A).
144DG11 can activate autophagy in the lysosomal storage disease (LSD) Pompe disease (PD) in which autophagy is perturbed (FIG. 15). […] This ratio serves as the most accepted marker for autophagy and autophagic flux. […] These observations indicate that, as in the GSD APBD, 144DG11 can activate autophagy also in the typical LSD PD in which autophagy is disturbed.

[3] = Safety assessment in wild type mice, 3 months; assay type: in vivo
Procedure: FIG. 10 includes a graph of the body weights of wild type C57B16J mice treated with Compound 1 for 3 months. Mice were injected twice a week with 150 μL of Compound 1 at 250 mg/kg in 5% DMSO, or an equal volume of 5% DMSO (V, vehicle) control. Injections were intravenous for the first month and then subcutaneously for the following 2 months;
FIG. 11 includes images of brain, liver, skeletal muscle, and heart tissue slices of wild type C57B16J mice treated for 3 months with Compound 1. The slices were stained by H&E staining in order to visualize lesions. No lesions were apparent in either treatment. Scale bars, 500 μm (brain), 100 μm (liver), 200 µm (muscle), 100 μm (heart).
The inventors have tested Compound 1 (FIG. 1A) for its capacity to correct the deficient motor phenotypes and short lifespan in the APBD mouse model Gbe^ys/ys. Compound 1 is one of 19 PG reducing HTS hits previously discovered by the inventors. It was selected by in silico ADMET (Absorption, Distribution, Metabolism, Excretion, and Toxicity) tests run on these hits to predict which of them should be safe and pharmacokinetically and pharmacodynamically preferred and is therefore worth further pursuit (FIG. 8, compound “A”). […] Following 1 h and 24 h treatments, mice were also examined for abnormal spontaneous behavior, such as immobility, excessive running, stereotyped movements, and abnormal posture (Irwin tests).

[4] = both HC and APBD fibroblasts, glycogen burden

SMILES: COCCN(Cc1sccc1C)C(=O)c1cc(C)nc(O)c1 [Compound 1]
- augmenting glycolytic contribution to ATP production: acute on assay supplementation vs 48 h pretreatment [1]: more effective
- overall ATP production [1, 4]: increased
- relative contribution of glycolytic ATP production at the expense of mitochondrial (OxPhos) ATP production [1, 4]: increased
- binding to LAMP1 (luminal portion of LAMP1; cytoplasmic pH 7): not at the cytoplasmic pH 7
- binding to LAMP1 (luminal portion of LAMP1; intermediate pH 6): some binding starting
- binding to LAMP1 (luminal portion of LAMP1; lysosomal pH 4.5-5): specific and dose-dependent binding
- kon (rate of association) (luminal portion of LAMP1; pH 4.5): slow
- pKd (luminal portion of LAMP1; read-out: apparent KD): 2.20
- sensitivity to vinblastine (increase in the LC3II/LC3I ratio) [2]: increased
- animals' weight gain over time ([3]; 3 months at 250 mg/kg in 5% DMSO): did not influence
- histopathological damage or lesions in brain, liver, skeletal muscle, and heart ([3]; after 3 months exposure): did not produce any histopathological damage or lesions
